# Source: patent publication US9655870B2, “Homeopathic drug composition and methods of use thereof” (priority 2002, dated 2017)
# Marks after values point to notes of the source that are not given here.
# Tested on: patients with at least moderate fatigue
# Test: Decreased fatigue study (Example 1)
# Format: in vivo, human
structure (smiles),measurement,setting,value
O=C(CCNC(=O)OCc1ccccc1)NCCS(=O)(=O)O [Taurox SB],decrease of average fatigue score,"eight patients, p=0.002",43%
same,fatigue,"patient 101, both doses (6X, 8X)",less fatigue
same,previously required daily naps,"patient 101, upon initiation of 6X",became unnecessary
same,Fatigue (lower numbers indicate less fatigue),"patient 101, week 0",28 pts
same,Fatigue (lower numbers indicate less fatigue),"patient 101, week 1",27 pts
same,Fatigue (lower numbers indicate less fatigue),"patient 101, week 2",24 pts
same,Fatigue (lower numbers indicate less fatigue),"patient 101, week 3",24 pts
same,Fatigue (lower numbers indicate less fatigue),"patient 101, week 4",27 pts
same,Fatigue (lower numbers indicate less fatigue),"patient 101, week 5",26 pts
same,Fatigue (lower numbers indicate less fatigue),"patient 101, week 6",20 pts
same,Fatigue (lower numbers indicate less fatigue),"patient 101, week 7",16 pts
same,Fatigue (lower numbers indicate less fatigue),"patient 101, week 8",16 pts
same,Fatigue (lower numbers indicate less fatigue),"patient 101, week 9",20 pts
same,Fatigue (lower numbers indicate less fatigue),"patient 101, week 10",14 pts
same,Fatigue (lower numbers indicate less fatigue),"patient 101, week 11",14 pts
same,Fatigue (lower numbers indicate less fatigue),"patient 101, week 12",19 pts
same,Fatigue (lower numbers indicate less fatigue),"patient 101, week 13",19 pts
same,Fatigue (lower numbers indicate less fatigue),"patient 101, week 14",20 pts
same,Fatigue (lower numbers indicate less fatigue),"patient 101, week 16",21 pts
same,Fatigue (lower numbers indicate less fatigue),"patient 101, week 17",19 pts
same,Fatigue (lower numbers indicate less fatigue),"patient 101, week 18",19 pts
same,Fatigue (lower numbers indicate less fatigue),"patient 101, week 19",17 pts
same,Fatigue (lower numbers indicate less fatigue),"patient 101, week 20",15 pts
same,Fatigue (lower numbers indicate less fatigue),"patient 101, week 21",16 pts
same,Fatigue (lower numbers indicate less fatigue),"patient 101, week 22",16 pts
same,Fatigue (lower numbers indicate less fatigue),"patient 102, week 0",41 pts
same,Fatigue (lower numbers indicate less fatigue),"patient 102, week 1",48 pts
same,Fatigue (lower numbers indicate less fatigue),"patient 102, week 2",47 pts
same,Fatigue (lower numbers indicate less fatigue),"patient 102, week 3",48 pts
same,Fatigue (lower numbers indicate less fatigue),"patient 102, week 4",40 pts
same,Fatigue (lower numbers indicate less fatigue),"patient 102, week 5",35 pts
same,Fatigue (lower numbers indicate less fatigue),"patient 102, week 6",48 pts
same,Fatigue (lower numbers indicate less fatigue),"patient 102, week 7",48 pts
same,Fatigue (lower numbers indicate less fatigue),"patient 102, week 8",48 pts
same,Fatigue (lower numbers indicate less fatigue),"patient 102, week 9",46 pts
same,Fatigue (lower numbers indicate less fatigue),"patient 102, week 10",37 pts
same,Fatigue (lower numbers indicate less fatigue),"patient 102, week 11",35 pts
same,Fatigue (lower numbers indicate less fatigue),"patient 102, week 12",22 pts
same,Fatigue (lower numbers indicate less fatigue),"patient 102, week 13",22 pts
same,Fatigue (lower numbers indicate less fatigue),"patient 102, week 14",22 pts
same,Fatigue (lower numbers indicate less fatigue),"patient 103, week 0",37 pts
same,Fatigue (lower numbers indicate less fatigue),"patient 103, week 1",31 pts
same,Fatigue (lower numbers indicate less fatigue),"patient 103, week 3",24 pts
same,Fatigue (lower numbers indicate less fatigue),"patient 103, week 5",21.5 pts
same,Fatigue (lower numbers indicate less fatigue),"patient 103, week 7",9 pts
same,Fatigue (lower numbers indicate less fatigue),"patient 201, week 0",29 pts
same,Fatigue (lower numbers indicate less fatigue),"patient 201, week 1",39 pts
same,Fatigue (lower numbers indicate less fatigue),"patient 201, week 2",36 pts
same,Fatigue (lower numbers indicate less fatigue),"patient 201, week 3",21 pts
same,Fatigue (lower numbers indicate less fatigue),"patient 201, week 4",23 pts
same,energy and sleep,patient 202,greater energy and better sleep
same,Fatigue (lower numbers indicate less fatigue),"patient 202, week 0",30 pts
same,Fatigue (lower numbers indicate less fatigue),"patient 202, week 1",39 pts
same,Fatigue (lower numbers indicate less fatigue),"patient 202, week 2",25 pts
same,Fatigue (lower numbers indicate less fatigue),"patient 202, week 5",17 pts
same,Fatigue (lower numbers indicate less fatigue),"patient 202, week 6",10* pts
same,fatigue,"patient 401, 8X dose",less fatigue
same,Fatigue (lower numbers indicate less fatigue),"patient 401, week 0",25 pts
same,Fatigue (lower numbers indicate less fatigue),"patient 401, week 1",20 pts
same,Fatigue (lower numbers indicate less fatigue),"patient 401, week 2",29 pts
same,Fatigue (lower numbers indicate less fatigue),"patient 401, week 3",21 pts
same,Fatigue (lower numbers indicate less fatigue),"patient 401, week 4",9 pts
same,Fatigue (lower numbers indicate less fatigue),"patient 401, week 5",8 pts
same,fatigue,patient 507,less fatigue
same,Fatigue (lower numbers indicate less fatigue),"patient 507, week 0",33 pts
same,Fatigue (lower numbers indicate less fatigue),"patient 507, week 1",32.5 pts
same,Fatigue (lower numbers indicate less fatigue),"patient 507, week 2",31 pts
same,fatigue,patient 703,less fatigue
same,Fatigue (lower numbers indicate less fatigue),"patient 703, week 0",48 pts
same,Fatigue (lower numbers indicate less fatigue),"patient 703, week 1",44 pts
same,Fatigue (lower numbers indicate less fatigue),"patient 703, week 2",44 pts
same,Fatigue (lower numbers indicate less fatigue),"patient 703, week 3",44 pts
same,Fatigue (lower numbers indicate less fatigue),"patient 703, week 4",44 pts
same,Fatigue (lower numbers indicate less fatigue),"patient 703, week 5",41 pts
same,Fatigue (lower numbers indicate less fatigue),"patient 703, week 6",37 pts
same,Fatigue (lower numbers indicate less fatigue),"patient 703, week 7",41 pts
same,Fatigue (lower numbers indicate less fatigue),"patient 703, week 8",41 pts
same,Fatigue (lower numbers indicate less fatigue),"patient 703, week 9",32.5 pts
same,Fatigue (lower numbers indicate less fatigue),"patient 703, week 10",39.5 pts
same,Fatigue (lower numbers indicate less fatigue),"patient 703, week 11",39.5 pts
same,Fatigue (lower numbers indicate less fatigue),"patient 703, week 12",39.5 pts
same,Fatigue (lower numbers indicate less fatigue),"patient 703, week 13",39.5 pts
same,fatigue,patient 706 (second HCV patient),decreased fatigue
same,"fatigue, all eight patients of Table 2",patients entering with at least moderate fatigue (24 pts or higher),reduced fatigue
